Results: the CheMixHub viscosity set
“And” between values parts separate entries of the source, which are not always exact repeats. Identical values can stand only once.

Assay: xn = mol fraction of the nth substance listed

CC(C)C(=O)O + O
Details | viscosity
293.15 K, 101.33 kPa, x1 = 0.011 | 1.181 mPa·s
293.15 K, 101.33 kPa, x1 = 0.0222 | 1.448 mPa·s
293.15 K, 101.33 kPa, x1 = 0.0348 | 1.558 mPa·s
293.15 K, 101.33 kPa, x1 = 0.0486 | 1.779 mPa·s
299.35 K, 101.33 kPa, x1 = 0.11 | 2.904 mPa·s
299.36 K, 101.33 kPa, x1 = 0.11 | 2.896 mPa·s
299.37 K, 101.33 kPa, x1 = 0.11 | 2.882 mPa·s
299.38 K, 101.33 kPa, x1 = 0.11 | 2.868 mPa·s
299.39 K, 101.33 kPa, x1 = 0.11 | 2.846 mPa·s and 2.836 mPa·s
299.4 K, 101.33 kPa, x1 = 0.11 | 2.813 mPa·s
299.43 K, 101.33 kPa, x1 = 0.11 | 2.767 mPa·s
299.45 K, 101.33 kPa, x1 = 0.11 | 2.751 mPa·s
299.48 K, 101.33 kPa, x1 = 0.11 | 2.711 mPa·s
299.5 K, 101.33 kPa, x1 = 0.11 | 2.69 mPa·s
299.56 K, 101.33 kPa, x1 = 0.11 | 2.645 mPa·s
299.64 K, 101.33 kPa, x1 = 0.11 | 2.606 mPa·s
299.72 K, 101.33 kPa, x1 = 0.11 | 2.571 mPa·s
299.85 K, 101.33 kPa, x1 = 0.11 | 2.541 mPa·s
299.96 K, 101.33 kPa, x1 = 0.11 | 2.506 mPa·s
300.15 K, 101.33 kPa, x1 = 0.11 | 2.466 mPa·s
300.4 K, 101.33 kPa, x1 = 0.11 | 2.422 mPa·s
301.15 K, 101.33 kPa, x1 = 0.11 | 2.317 mPa·s
302.15 K, 101 kPa, x1 = 0.0106 | 0.9416 mPa·s
302.15 K, 101 kPa, x1 = 0.0222 | 1.066 mPa·s
302.15 K, 101 kPa, x1 = 0.0348 | 1.21 mPa·s
302.15 K, 101 kPa, x1 = 0.0486 | 1.388 mPa·s
302.15 K, 101 kPa, x1 = 0.0545 | 1.469 mPa·s
302.15 K, 101 kPa, x1 = 0.0638 | 1.6 mPa·s
302.15 K, 101 kPa, x1 = 0.0737 | 1.74 mPa·s
302.15 K, 101 kPa, x1 = 0.0806 | 1.837 mPa·s
302.15 K, 101 kPa, x1 = 0.0915 | 1.999 mPa·s
302.15 K, 101 kPa, x1 = 0.1114 | 2.213 mPa·s
302.15 K, 101 kPa, x1 = 0.12 | 2.285 mPa·s
302.15 K, 101 kPa, x1 = 0.129 | 2.348 mPa·s
302.15 K, 101 kPa, x1 = 0.1433 | 2.423 mPa·s
302.15 K, 101 kPa, x1 = 0.1698 | 2.499 mPa·s
302.15 K, 101 kPa, x1 = 0.1999 | 2.568 mPa·s
302.15 K, 101 kPa, x1 = 0.2347 | 2.614 mPa·s
302.15 K, 101 kPa, x1 = 0.323 | 2.632 mPa·s
302.15 K, 101 kPa, x1 = 0.4499 | 2.493 mPa·s
302.15 K, 101 kPa, x1 = 0.4996 | 2.403 mPa·s
302.15 K, 101 kPa, x1 = 0.7953 | 1.685 mPa·s
302.15 K, 101 kPa, x1 = 0.9529 | 1.27 mPa·s
302.27 K, 101.33 kPa, x1 = 0.11 | 2.211 mPa·s
303.11 K, 101.33 kPa, x1 = 0.11 | 2.144 mPa·s
303.15 K, 101.33 kPa, x2 = 0.352 | 1.51 mPa·s
303.15 K, 101.33 kPa, x2 = 0.55 | 2.12 mPa·s
303.15 K, 101.33 kPa, x2 = 0.677 | 2.43 mPa·s
303.15 K, 101.33 kPa, x2 = 0.765 | 2.51 mPa·s
303.15 K, 101.33 kPa, x2 = 0.83 | 2.42 mPa·s
303.15 K, 101.33 kPa, x2 = 0.88 | 2 mPa·s
303.15 K, 101.33 kPa, x2 = 0.919 | 1.58 mPa·s
303.15 K, 101.33 kPa, x2 = 0.951 | 1.28 mPa·s
303.15 K, 101.33 kPa, x2 = 0.978 | 1.02 mPa·s
304.12 K, 101.33 kPa, x1 = 0.11 | 2.07 mPa·s
305.07 K, 101.33 kPa, x1 = 0.11 | 2.003 mPa·s
305.15 K, 101 kPa, x1 = 0.0106 | 0.8833 mPa·s
305.15 K, 101 kPa, x1 = 0.0222 | 0.9974 mPa·s
305.15 K, 101 kPa, x1 = 0.0348 | 1.127 mPa·s
305.15 K, 101 kPa, x1 = 0.0486 | 1.284 mPa·s
305.15 K, 101 kPa, x1 = 0.0545 | 1.355 mPa·s
305.15 K, 101 kPa, x1 = 0.0638 | 1.469 mPa·s
305.15 K, 101 kPa, x1 = 0.0737 | 1.59 mPa·s
305.15 K, 101 kPa, x1 = 0.0806 | 1.673 mPa·s
305.15 K, 101 kPa, x1 = 0.0915 | 1.799 mPa·s
305.15 K, 101 kPa, x1 = 0.1114 | 1.993 mPa·s
305.15 K, 101 kPa, x1 = 0.12 | 2.06 mPa·s
305.15 K, 101 kPa, x1 = 0.129 | 2.117 mPa·s
305.15 K, 101 kPa, x1 = 0.1433 | 2.18 mPa·s
305.15 K, 101 kPa, x1 = 0.1698 | 2.271 mPa·s
305.15 K, 101 kPa, x1 = 0.1999 | 2.339 mPa·s
305.15 K, 101 kPa, x1 = 0.2347 | 2.388 mPa·s
305.15 K, 101 kPa, x1 = 0.323 | 2.423 mPa·s
305.15 K, 101 kPa, x1 = 0.4499 | 2.32 mPa·s
305.15 K, 101 kPa, x1 = 0.4996 | 2.244 mPa·s
305.15 K, 101 kPa, x1 = 0.6404 | 1.959 mPa·s
305.15 K, 101 kPa, x1 = 0.7953 | 1.597 mPa·s
305.15 K, 101 kPa, x1 = 0.9529 | 1.214 mPa·s
306.72 K, 101.33 kPa, x1 = 0.11 | 1.907 mPa·s
307.67 K, 101.33 kPa, x1 = 0.11 | 1.855 mPa·s
308.15 K, 101 kPa, x1 = 0.0106 | 0.8203 mPa·s
308.15 K, 101 kPa, x1 = 0.0222 | 0.9263 mPa·s
308.15 K, 101 kPa, x1 = 0.0348 | 1.049 mPa·s
308.15 K, 101 kPa, x1 = 0.0486 | 1.194 mPa·s
308.15 K, 101 kPa, x1 = 0.0545 | 1.259 mPa·s
308.15 K, 101 kPa, x1 = 0.0638 | 1.361 mPa·s
308.15 K, 101 kPa, x1 = 0.0737 | 1.468 mPa·s
308.15 K, 101 kPa, x1 = 0.0806 | 1.541 mPa·s
308.15 K, 101 kPa, x1 = 0.0915 | 1.651 mPa·s
308.15 K, 101 kPa, x1 = 0.1114 | 1.827 mPa·s
308.15 K, 101 kPa, x1 = 0.12 | 1.878 mPa·s
308.15 K, 101 kPa, x1 = 0.129 | 1.927 mPa·s
308.15 K, 101 kPa, x1 = 0.1433 | 1.99 mPa·s
308.15 K, 101 kPa, x1 = 0.1698 | 2.077 mPa·s
308.15 K, 101 kPa, x1 = 0.1999 | 2.144 mPa·s
308.15 K, 101 kPa, x1 = 0.2347 | 2.195 mPa·s
308.15 K, 101 kPa, x1 = 0.323 | 2.24 mPa·s
308.15 K, 101 kPa, x1 = 0.4499 | 2.156 mPa·s
308.15 K, 101 kPa, x1 = 0.4996 | 2.089 mPa·s
308.15 K, 101 kPa, x1 = 0.6404 | 1.837 mPa·s
308.15 K, 101 kPa, x1 = 0.7953 | 1.504 mPa·s
308.15 K, 101 kPa, x1 = 0.9529 | 1.155 mPa·s
311.15 K, 101 kPa, x1 = 0.0106 | 0.765 mPa·s
311.15 K, 101 kPa, x1 = 0.0222 | 0.8626 mPa·s
313.15 K, 101.33 kPa, x1 = 0.011 | 0.767 mPa·s
313.15 K, 101.33 kPa, x1 = 0.0222 | 0.907 mPa·s
313.15 K, 101.33 kPa, x1 = 0.0348 | 0.965 mPa·s
313.15 K, 101.33 kPa, x1 = 0.0486 | 1.094 mPa·s
